Earlier results as cited in paper PMC4232468 (Nature chemical biology, 2014).

## Cc1ccc2c(=O)c3cccc(CC(=O)O)c3oc2c1C [DMXAA, 5,6-dimethylxanthenone-4-acetic acid]
Mouse STING (mSTING)
  activation of mouse STING: activates mouse STING (mSTING)
Human STING (hSTING)
  activation of human STING: not human STING (hSTING)
